Source: patent publication US20230111310A1, “CARBOXYLIC ACID DERIVATIVE-SUBSTITUTED IMINO ARYL COMPOUND, PREPARATION METHOD THEREFOR, HERBICIDAL COMPOSITION AND USE THEREOF” (Qingdao Kingagroot Chemical Compound Co., Ltd., priority 2020, published 2023)

Assays:
Assay in all cases: Weeding effect in post-emergence stage
Assay type in all cases: in vivo
Echinochloa crusgalli = conditions: Dose 15 g/ha; for Weeding effect in post-emergence stage, Echinochloa crusgalli: level of fresh weight growth control rate
Text: (§1) The activity level criteria for plant damage (i.e., growth control rate) are as follows:
(§2) Monocotyledonous and dicotyledonous weed seeds (Descurainia sophia, Capsella bursa-pastoris, Abutilon theophrasti, Galium aparine, Stellaria media, Lithospermum arvense, rorippa indica, Alopecurus aequalis, Alopecurus japonicus, Eleusine indica, Beckmannia syzigachne, Sclerochloa dura, Conyza Canadensis, Phleum paniculatum, Veronica didyma Tenore, Bromus japonicus, Aegilops tauschii, Phalaris arundinacea, Amaranthus retroflexus, Chenopodiaceae, Commelina communis, Sonchus arvensis, Convolvulus arvensis, Cirsium setosum, Bidens tripartita L., Solanum nigrum, Acalypha australis, Digitaria sanguinalis, Echinochloa crusgalli, Setaria viridis, Setaria glauca, Leptochloa chinensis, Monochoria vaginalis, Sagittaria trifolia, Scirpus juncoides, Cyperus rotundus, Cyperus iria, Cyperus difformis, Fimbristylis, Portulaca oleracea, Xanthium sibiricum, Pharbitis nil, etc.) and major crop seeds (wheat, corn, rice, soybean, cotton, oilseed rape, millet, sorghum, potato, sesame, ricinus, etc.) were placed in plastic pots filled with soil, then covered with 0.5-2 cm of soil, allowed to grow in a good greenhouse environment. After 2 weeks of sowing, the test plants were treated in the 2-3 leaf stage. The tested compounds of the present invention were respectively dissolved in acetone, then added with Tween 80 and 1.5 liter/ha of emulsifiable concentrate of methyl oleate as synergist, diluted with a certain amount of water to obtain a solution with a certain concentration, and sprayed with a spray tower onto the plants. After the application, the plants were cultured for 3 weeks in the greenhouse, and then the experimental results of the weeding were counted. The doses of the used compounds were 500, 250, 125, 60, 30, 15, 7.5 g/ha, and the averages were obtained by repeating for three times.

Abutilon theophrasti = conditions: Dose 15 g/ha; level of fresh weight growth control rate
Text: as §1
as §2, with “The doses of the used compounds were 500, 250, 125, 60, 30, 15, 7.5 g/ha, and the averages were obtained by repeating for three times.” left out

Digitaria sanguinalis = conditions: Dose 15 g/ha; for Weeding effect in post-emergence stage, Digitaria sanguinalis: level of fresh weight growth control rate
Text: as §1
as §2, with “The doses of the used compounds were 500, 250, 125, 60, 30, 15, 7.5 g/ha, and the averages were obtained by repeating for three times.” left out

Setaria viridis = conditions: Dose 15 g/ha; for Weeding effect in post-emergence stage, Setaria viridis: level of fresh weight growth control rate
Text: as §1
as §2, with “The doses of the used compounds were 500, 250, 125, 60, 30, 15, 7.5 g/ha, and the averages were obtained by repeating for three times.” left out

Eleusine indica = conditions: Dose 15 g/ha; for Weeding effect in post-emergence stage, Eleusine indica: level of fresh weight growth control rate
Text: as §1
as §2, with “The doses of the used compounds were 500, 250, 125, 60, 30, 15, 7.5 g/ha, and the averages were obtained by repeating for three times.” left out

Alopecurus japonicus = conditions: Dose 15 g/ha
Text: as §1
as §2, with “The doses of the used compounds were 500, 250, 125, 60, 30, 15, 7.5 g/ha, and the averages were obtained by repeating for three times.” left out

[1] = fresh weight control rate level

Compound	Weeding effect in post-emergence stage, Echinochloa crusgalli (Echinochloa crusgalli)	Weeding effect in post-emergence stage, Abutilon theophrasti (Abutilon theophrasti)	Weeding effect in post-emergence stage, Digitaria sanguinalis (Digitaria sanguinalis)	Weeding effect in post-emergence stage, Setaria viridis (Setaria viridis)	Weeding effect in post-emergence stage, Eleusine indica (Eleusine indica)	Weeding effect in post-emergence stage, Alopecurus japonicus (Alopecurus japonicus; level of fresh weight growth control rate)	Weeding effect in post-emergence stage, Echinochloa crusgalli (level) (Echinochloa crusgalli; [1])	Weeding effect in post-emergence stage, Digitaria sanguinalis (level) (Digitaria sanguinalis; [1])	Weeding effect in post-emergence stage, Setaria viridis (level) (Setaria viridis; [1])	Weeding effect in post-emergence stage, Eleusine indica (level) (Eleusine indica; [1])	Weeding effect in post-emergence stage, Alopecurus japonicus (level) (Alopecurus japonicus; [1])
CCOC(=O)C(C)O/N=C/c1cc(-n2c(=O)n(C)c(=S)n(C)c2=O)c(F)cc1Cl (racemic) [Compound 2]	5 (Level 5: growth control rate is above 85%)	5 (Level 5: growth control rate is above 85%)	5 (Level 5: growth control rate is above 85%)	5 (Level 5: growth control rate is above 85%)	5 (Level 5: growth control rate is above 85%)	5 (Level 5: growth control rate is above 85%)					
COC(=O)C(C)O/N=C/c1cc(-n2c(=O)n(C)c(=S)n(C)c2=O)c(F)cc1C(F)(F)F (racemic) [Compound 85]	5 (Level 5: growth control rate is above 85%)	5 (Level 5: growth control rate is above 85%)	5 (Level 5: growth control rate is above 85%)	5 (Level 5: growth control rate is above 85%)	5 (Level 5: growth control rate is above 85%)						
CCC[C@@H](O/N=C/c1cc(-n2c(=O)n(C)c(=S)n(C)c2=O)c(F)cc1Cl)C(=O)OCC [74(R)]	5 (Level 5: growth control rate is above 85%)	5 (Level 5: growth control rate is above 85%)	4 (Level 4: growth control rate is greater than or equal to 60% and less than 85%)	5 (Level 5: growth control rate is above 85%)	5 (Level 5: growth control rate is above 85%)						
CC(O/N=C/c1cc(-n2c(=O)n(C)c(=S)n(C)c2=O)c(F)cc1Cl)C(=O)OCc1cccnc1 (stereo not shown) [Compound 59]	5 (Level 5: growth control rate is above 85%)	5 (Level 5: growth control rate is above 85%)	5 (Level 5: growth control rate is above 85%)	5 (Level 5: growth control rate is above 85%)	5 (Level 5: growth control rate is above 85%)						
CCCC(O/N=C/c1cc(-n2c(=O)n(C)c(=S)n(C)c2=O)c(F)cc1Cl)C(=O)OCC (stereo not shown) [Compound 74]	5 (Level 5: growth control rate is above 85%)	5 (Level 5: growth control rate is above 85%)	4 (Level 4: growth control rate is greater than or equal to 60% and less than 85%)	5 (Level 5: growth control rate is above 85%)	4 (Level 4: growth control rate is greater than or equal to 60% and less than 85%)						
COC(=O)C(C)O/N=C/c1cc(-n2c(=O)cc(C(F)(F)F)n(N)c2=O)c(F)cc1Cl (stereo not shown) [Control compound E, reference compound]							4 (Level 4: growth control rate is greater than or equal to 60% and less than 85%)	3 (Level 3: growth control rate is greater than or equal to 40% and less than 60%)	4 (Level 4: growth control rate is greater than or equal to 60% and less than 85%)	3 (Level 3: growth control rate is greater than or equal to 40% and less than 60%)	3 (Level 3: growth control rate is greater than or equal to 40% and less than 60%)
